Results: publication PMC12838644, “Dihydrotanshinone as a Natural Product-Based CYP17A1 Lyase Inhibitor for Hyperandrogenic Disorders” (Biomolecules, 2026)

Tests used:
CYP17A1 17α-hydroxylase = target: T1, CYP17A1 17α-hydroxylase (Homo sapiens, UniProt P05093); experiment: CYP17A1 17α-hydroxylase activity assay (progesterone to 17OH-progesterone, reconstituted POR/CYP17A1); format: biochemical; conditions: 10 µM (SM extract 10 µg/mL)
T1 sequence (P05093 1-508): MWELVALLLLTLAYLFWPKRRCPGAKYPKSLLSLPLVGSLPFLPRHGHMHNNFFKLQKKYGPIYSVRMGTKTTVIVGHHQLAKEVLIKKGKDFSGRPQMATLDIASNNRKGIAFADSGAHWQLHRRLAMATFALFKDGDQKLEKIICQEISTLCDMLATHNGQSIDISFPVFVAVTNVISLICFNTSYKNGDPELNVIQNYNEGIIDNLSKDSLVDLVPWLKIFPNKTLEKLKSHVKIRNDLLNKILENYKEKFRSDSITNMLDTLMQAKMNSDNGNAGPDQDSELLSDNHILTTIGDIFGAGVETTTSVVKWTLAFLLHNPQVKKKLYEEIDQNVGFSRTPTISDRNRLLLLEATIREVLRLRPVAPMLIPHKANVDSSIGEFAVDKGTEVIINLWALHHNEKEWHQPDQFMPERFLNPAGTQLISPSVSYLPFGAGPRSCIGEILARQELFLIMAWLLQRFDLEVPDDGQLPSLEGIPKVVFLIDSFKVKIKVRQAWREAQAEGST
Method: (§1) Assay of CYP17A1 17α-hydroxylase and 17,20-lyase activities were performed as described previously. The 17α-hydroxylase activity was measured by conversion of progesterone to 17OH-progesterone, while production of DHEA from 17OH-pregnenolone was used for monitoring the 17,20-lyase activity of CYP17A1. In vitro CYP17A1 assays were performed using a liposome system consisting of human p450 oxidoreductase (POR) and CYP17A1 at a ratio of 3:4 (POR: CYP17A1). The final assay mixture consisted of proteins (37.5 nmol POR: 50 nmol CYP17A1), 10 mM MgCl2, 6 mM potassium acetate (KOAc), 0.05 mg/mL DLPC,1 mM reduced Glutathione in 50 mM HEPES-NaOH buffer (pH 7.4), and the reaction volume was 200 μL. The drugs were added to the final mixture and incubated for 1h before the catalytic reaction was initiated by the addition of NADPH to 1 mM final concentration. Radiolabeled [^14C]-progesterone (10,000 cpm in 1 µM) was used as a tracer in each reaction. Steroids were extracted and separated by thin-layer chromatography (TLC) on silica gel (SIL G/UV254) TLC plates (Macherey-Nagel, Oensingen, Switzerland) as previously described.

CYP17A1 17,20-lyase = target: T2, CYP17A1 17,20-lyase (Homo sapiens, UniProt P05093); experiment: CYP17A1 17,20-lyase activity assay (DHEA from 17OH-pregnenolone, POR, CYP17A1 and cytochrome b5); format: biochemical
T2 sequence (P05093 1-508): T1 sequence (P05093 1-508)
Method: as §1, with “The final assay mixture consisted of proteins (37.5 nmol POR: 50 nmol CYP17A1), 10 mM MgCl2, 6 mM potassium acetate (KOAc), 0.05 mg/mL DLPC,1 mM reduced Glutathione in 50 mM HEPES-NaOH buffer (pH 7.4), and the reaction volume was 200 μL.” left out
In vitro CYP17A1 17,20-lyase activity assays were performed using POR, CYP17A1 and cytochrome b5 as described previously. The final assay mixture consisted of proteins, 10 mM MgCl2, 6 mM KOAc, 0.05 mg/mL DLPC, 1 mM reduced glutathione in 50 mM HEPES-NaOH buffer (pH 7.4), and the reaction volume was 200 μL. The drugs were added to the final mixture and incubated for 1h before the catalytic reaction was initiated by the addition of NADPH to 1 mM final concentration. Radiolabeled [^3H]-17OH-pregnenolone (50,000 cpm in 1 µM) was added as a tracer and the enzyme activity was measured by using the scintillation counter in the water release assay.

CYP21A2 = target: T3, CYP21A2 (Homo sapiens, UniProt P08686); experiment: CYP21A2 activity assay in transiently transfected HEK-293T cells; format: cell-based; conditions: transfected HEK-293T cells
T3 construct: expressed in transfected cells; host or cells: HEK293 / HEK-293T
T3 sequence (P08686 1-495): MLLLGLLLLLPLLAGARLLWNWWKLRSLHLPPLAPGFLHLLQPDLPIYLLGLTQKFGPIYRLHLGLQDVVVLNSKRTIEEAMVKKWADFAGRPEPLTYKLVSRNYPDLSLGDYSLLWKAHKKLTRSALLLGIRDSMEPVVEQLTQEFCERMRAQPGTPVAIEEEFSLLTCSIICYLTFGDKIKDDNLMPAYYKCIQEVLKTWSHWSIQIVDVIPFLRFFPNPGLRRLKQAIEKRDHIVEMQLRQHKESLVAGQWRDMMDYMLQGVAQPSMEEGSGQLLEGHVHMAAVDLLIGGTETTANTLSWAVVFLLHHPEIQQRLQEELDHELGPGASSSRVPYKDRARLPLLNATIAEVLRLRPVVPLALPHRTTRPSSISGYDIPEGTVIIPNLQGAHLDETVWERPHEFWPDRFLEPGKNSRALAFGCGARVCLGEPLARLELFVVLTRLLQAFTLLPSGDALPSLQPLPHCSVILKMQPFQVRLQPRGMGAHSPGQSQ
Method: Transient transfections were performed using the CYP21A2 WT vector as described previously. HEK293 cells were seeded in six-well plates (3 × 10^5 cells/well). After 24 h, the growth medium was replaced, and cells were transfected using Lipofectamine 2000 (Thermo Fisher Scientific, Bedford, MA, USA) with 12.5 µg of plasmid (plasmid concentration: 1068 µg/mL). Twenty-four hours after transfection, transfected cells were replated in 24-well plates (1.5 × 10^5 cells/well) to ensure homogeneity of the cell population across the wells. Six hours after transfection, 2 mL of fresh medium was replaced, and the cells were cultured for 48 h. Cell growth was examined. […] DMSO was added to the negative control, and 10 µM abiraterone was added to the positive control, and the cells were incubated for 4 h. Functional assays were initiated by adding 1 µM unlabeled progesterone (using 10,000 cpm of [^14C]-progesterone as a tracer). After incubation at 37 °C for 1 h, the culture medium and cells were harvested. Steroids were extracted from the culture medium with ethyl acetate and isooctane (1:1 volume ratio), dried, and dissolved in dichloromethane. Steroids were separated by thin-layer chromatography (TLC), placed on a phosphor screen, and visualized using a Typhoon PhosphorImager FLA-7000 (GE Healthcare Bio-Sciences AB, Uppsala, Sweden). Image intensity was measured and quantified using ImageQuant TL v8 (Cytiva, Marlborough, MA, USA). The CYP21A2 enzyme activity was expressed as relative steroid conversion. Steroids were quantified as a percentage of radioactivity incorporated into […] to the total radioactivity measured in the whole sample and compared between the WT and variants. Cells were collected with trypsin and washed with 1× PBS to quantify the amount of protein. Results were analyzed from three technical replicates. To ensure a similar amount of CYP21A2 in each reaction, a Western blot analysis was performed to normalize the enzyme activity with the relative CYP21A2 expression.

inhibition at 10 µM (CYP17A1 17α-hydroxylase; calculated as 100% − % residual activity, read-out: % Inhibition CYP17A1-OH): 94.7% | Residual 17α-hydroxylase activity (CYP17A1 17α-hydroxylase; % of DMSO control): 5.3% | inhibition at 10 µM (CYP17A1 17,20-lyase; 10 µM (SM extract 10 µg/mL), calculated as 100% − % residual activity, read-out: % Inhibition CYP17A1-Lyase): 69.6% | Residual 17,20-lyase activity (CYP17A1 17,20-lyase; % of DMSO control, 10 µM (SM extract 10 µg/mL)): 30% | Lyase/CYP21A2 Selectivity Index (CYP17A1 17,20-lyase; (% Inhibition Lyase)/(% Inhibition CYP21A2) at 10 µM (SM 10 µg/mL)): 2.34 | Lyase/OH Selectivity Index (CYP17A1 17,20-lyase; (% Inhibition Lyase)/(% Inhibition OH) at 10 µM (SM 10 µg/mL)): 0.73 | inhibition at 10 µM (CYP21A2; 10 µM (SM extract 10 µg/mL), calculated as 100% − % residual activity, read-out: % Inhibition CYP21A2): 29.8% | Residual CYP21A2 activity (CYP21A2; % of DMSO control, 10 µM): 70%
Compound: C[C@]12CC[C@H](O)CC1=CC[C@@H]1[C@@H]2CC[C@]2(C)C(c3cccnc3)=CC[C@@H]12 [Abiraterone, abiraterone, reference compound]
